By logP is commonly meant the decadic logarithm of the partition coefficient of the neutral form, usually between octanol and water. Higher therefore signals higher lipophilicity.

21 molecules from the SangsterLogP compilation can be followed below.

Molecules are shown by their SMILES.

The molecule `COc1nnc(C(C)(C)C)c(=O)n1N` registered a logP of 1.31.

Molecule `CSc1nnc(C2CCCCC2)c(=O)n1N` returned a logP of 2.09.

Molecule `CSc1nnc(CC(C)C)c(=O)n1N` returned a logP of 1.53.

`CNc1nnc(-c2ccc(F)c(Cl)c2)c(=O)n1C` gave a logP of 1.6.

Regarding `CNc1nnc(-c2ccc(OC(F)(F)F)cc2)c(=O)[nH]1`, the logP came to 1.86.

In turn, `CSc1nnc(C)c(=O)n1N` gave a logP of 0.15.

`Cn1c(S)nnc(-c2cc(Cl)cc(Cl)c2)c1=O` showed a log partition coefficient (logP) of 3.43.

For `CSc1nnc(-c2ccc(OC(F)(F)F)cc2)c(=O)[nH]1`, the logP came out at 2.35.

`CNc1nnc(-c2cc(Cl)cc(Cl)c2)c(=O)n1N` displayed a logP of 1.91.

`CCOc1cccc(-c2nnc(C)n(NC)c2=O)c1` gave a logP of 1.91.

Consider `CSc1nnc(-c2cc(Cl)cc(Cl)c2)c(=O)n1N`, for which the logP was 3.02.

With `CSc1nnc(C(C)C)c(=O)n1N`, the logP stood at 1.23.

As to `CNc1nnc(C(C)(C)C)c(=O)n1N`, the logP stood at 0.52.

`Cn1c(S)nnc(-c2ccc(F)cc2)c1=O` yielded a logP of 2.38.

For `Cc1nnc(C(C)(C)C)c(=O)n1N`, the lipophilicity (logP) was 1.03.

Consider `CSc1nnc(C2CCOCC2)c(=O)n1N`, for which the logP amounted to 1.07.

`CN(C)c1nnc(C(C)(C)C)c(=O)n1C` displayed a logP of 1.07.

For the molecule `CNc1nnc(-c2ccc(OC(F)(F)F)c(Cl)c2)c(=O)n1C`, the logP stood at 2.35.

The molecule `CCCc1nnc(SC)n(N)c1=O` came in with a logP of 1.19.

With `CCOc1cccc(-c2nnc(S)n(C)c2=O)c1`, the logP was found to be 2.67.

For the molecule `Nn1c(S)nnc(-c2cc(Cl)cc(Cl)c2)c1=O`, the logP was determined as 2.67.
